Experiments:
human LSD1 = human LSD1 (Homo sapiens (Human), UniProt O60341); assay: Evaluation of enzyme activity: LSD1 fluorescence coupling enzyme assay (HRP/Amplex Red); type: biochemical; details: human LSD1, histone H3(1-21)K4me2 peptide 10 μM, 30 min pre-incubation
Description: The purpose of this test is to test the in vitro inhibitory activities of the compounds against LSD1. The enzyme used in this experiment was human LSD1, and the standard substrate was histone H3(1-21)K4me2 peptide (10 μM). HCI-2509 (SP2509) was used as reference compound, and the fluorescence coupling enzyme assay was employed. The production of FAD-dependent H2O2 as a result of demethylase activity of LSD1 was measured by coupling with HRP and Amplex Red. Compounds as well as control compound HCl-2509 were tested in 10-dose IC50 mode with a 3-fold serial dilution in duplicate starting at 10 μm. All compounds were pre-incubated 30 mins with enzyme before added substrate to start reaction. Fluorescence measurement: Ex/Em=535/590 by EnVision.
The test compound's inhibitory activities against LSD11 was classified as: + for IC50≤50 nM; ++ for IC50>50 nM and ≤100 nM; +++ for IC50>100 nM and ≤500 nM, and the results are shown in Table 1.

H1417 cells = assay: Cell proliferation inhibitory activity on H1417 cells (CellTiter-Glo, 10 days); type: cell-based, human; details: Homo sapiens; for IC50: NCI-H1417, 240 h, H1417 cells, 10 days incubation; for Emax: NCI-H1417, H1417 cells, highest percentage inhibition of cell viability, read-out: Maximum inhibition percentage (%)
Description: Experimental purposes: To test the proliferation inhibitory activities of the test compounds on H1417 cells.
Experimental materials: RPMI 1640 medium, fetal bovine serum, Promega CellTiter-Glo reagent. The H1417 cell line purchased from ATCC. Envision Multi-Label Analyzer (PerkinElmer).
Experimental method: H1417 cells were seeded in a black 384-well plate, 1000 cells per well in […] of cell suspension. The test compounds were diluted 3-fold with Epmotion to the 10th concentration i.e, the compounds were diluted from 10 mmol to […], and a double duplicate well experiment was set. 198 μL medium was added to the middle plate, according to the corresponding position, 2 μL gradient diluted compounds were added to the middle plate. The mixture was mixed evenly and transferred 20 μL per well to the cell plates. The cell plates were incubated in a carbon dioxide incubator for 10 days. 25 μL of Promega CellTiter-Glo reagent per well was added to the cell plate and the mixture was incubated for 10 minutes at room temperature to stabilize the luminescence signal. Readings were performed by PerkinElmer Envision multi-label analyzer.
Data analysis: The original data was converted to the inhibition rate by the equation (Max-Ratio)/(Max-Min)*100%, and the value of IC50 can be obtained by curve fitting with four parameters. (Model 205 in XLFIT5, iDBS)
The growth inhibitory activities of the test compounds on H1417 cells were classified as + for IC50≤100 nM; ++ for IC50>100 nM and ≤500 nM; +++ for IC50>500 nM and ≤1000 nM; the highest percentage inhibition of cell viability was classified as: […]; 90%>B≥70%; 70%>C≥50%.

SMILES | IC50 (human LSD1) | IC50 (H1417 cells) | Emax (H1417 cells)
COC(=O)c1ccc(CN2CCC(c3nc(C4(CN[C@H]5CC5c5ccccc5)CC4)no3)CC2)cc1 (single isomer, unassigned) [Example 165] | 100 to 500 nM | – | –
c1ccc([C@H]2C[C@@H]2NCC2(c3nc4ccccc4o3)CC2)cc1 [Example 76] | 50 to 100 nM | – | –
c1ccc(C2C[C@@H]2NCC2(c3cccnc3)CCC2)cc1 (some centres unmarked) [Example 119] | ≤ 50 nM | – | –
FC1(F)Oc2ccc(-c3nc(C4(CN[C@H]5CC5c5ccccc5)CCC4)no3)cc2O1 (some centres unmarked) [Example 93] | ≤ 50 nM | – | –
OC1CC(CN[C@H]2CC2c2ccccc2)(c2cccnc2)C1 (some centres unmarked) [Example 86] | ≤ 50 nM | – | –
O=C(O)C1CCN(CC2(CN[C@H]3CC3c3ccccc3)CC2)CC1 (some centres unmarked) [Example 54] | – | 500 to 1000 nM | 50 to 70%
O=C(O)[C@H](Cc1ccccc1)NCC1(CN[C@@H]2C[C@H]2c2ccccc2)CC1 [Example 112] | 100 to 500 nM | – | –
c1ccc(C2C[C@@H]2NCC2(c3noc(-c4ccccn4)n3)CCC2)cc1 (some centres unmarked) [Example 125] | ≤ 50 nM | – | –
c1ccc(C2C[C@@H]2NCC2(c3noc4ccccc34)CC2)cc1 (some centres unmarked) [Example 71] | ≤ 50 nM | – | –
FC(F)(F)c1ccc2c(c1)CN(CC1(CN[C@H]3CC3c3ccccc3)CC1)CC2 (some centres unmarked) [Example 51] | – | 100 to 500 nM | 70 to 90%
N#Cc1ccc(CNC2(CN[C@H]3CC3c3ccccc3)CCC2)cc1 (some centres unmarked) [Example 48] | ≤ 50 nM | – | –
C[C@H]1CCCN1CC1(CN[C@H]2C[C@@H]2c2ccccc2)CC1 [Example 212] | 100 to 500 nM | – | –
O=C(O)c1ccc(C2CCN(CC3(CN[C@H]4CC4c4ccccc4)CC3)CC2)cc1 (some centres unmarked) [Example 56] | – | 500 to 1000 nM | 50 to 70%
O=C(O)c1ccc2c(c1)CN(CC1(CN[C@H]3CC3c3ccccc3)CC1)CC2 (some centres unmarked) [Example 53] | – | 500 to 1000 nM | 90 to 100%
FC(F)(F)c1ccnc(-c2nc(C3(CN[C@H]4CC4c4ccccc4)CCC3)no2)c1 (some centres unmarked) [Example 126] | ≤ 50 nM | – | –
O=C(O)c1ccc(-c2nc(C3(CN[C@H]4CC4c4ccccc4)CCC3)no2)cc1 (some centres unmarked) [Example 188] | ≤ 50 nM | – | –
O=C(O)C1CCC(c2nc(C3(CN[C@H]4CC4c4ccccc4)CC3)no2)CC1 (some centres unmarked) [Example 67] | – | 100 to 500 nM | 50 to 70%
O=C(O)c1ccc(N2CCC(c3nc(C4(CN[C@H]5C[C@@H]5c5ccccc5)CC4)no3)CC2)cc1 [Example 103] | 100 to 500 nM | – | –
C[C@@H]1CN(CC2(CN[C@H]3CC3c3ccccc3)CC2)[C@@H](C)CN1C (some centres unmarked) [Example 221] | 100 to 500 nM | – | –
CC1(C)CCN(CC2(CN[C@H]3CC3c3ccccc3)CC2)C1 (some centres unmarked) [Example 202] | – | 100 to 500 nM | 70 to 90%
N[C@H]1CCC[C@@H](c2nc(C3(CN[C@@H]4C[C@H]4c4ccccc4)CC3)no2)C1 [Example 148] | ≤ 50 nM | – | –
CC(=O)N1CCC(c2nc(C3(CN[C@H]4C[C@@H]4c4ccccc4)CC3)no2)CC1 [Example 105] | 50 to 100 nM | – | –
c1ccc([C@H]2C[C@@H]2NCC2(CN3CCC3)CC2)cc1 [Example 211] | 50 to 100 nM | – | –
c1ccc(C2C[C@@H]2NCC2(CN3Cc4ccncc4C3)CC2)cc1 (some centres unmarked) [Example 61] | – | 500 to 1000 nM | 50 to 70%
O=C(O)c1ccc(CNC2(CN[C@H]3C[C@@H]3c3ccccc3)CC2)cc1 [Example 200] | 100 to 500 nM | – | –
Cc1oc(C2(CN[C@H]3C[C@@H]3c3ccccc3)CCC2)nc1C(=O)O [Example 186] | 100 to 500 nM | – | –
NC1CCN(C(=O)c2nc(C3(CN[C@@H]4C[C@H]4c4ccccc4)CC3)no2)CC1 [Example 160] | ≤ 50 nM | – | –

SMILES | IC50 (human LSD1) | IC50 (H1417 cells) | Emax (H1417 cells)
C/C(=N\NC(=O)c1cccc(S(=O)(=O)N2CCOCC2)c1)c1cc(Cl)ccc1O [HCI-2509, reference compound] | ≤ 50 nM | – | –
N[C@H]1CC[C@H](Cc2nc(C3(CN[C@@H]4C[C@H]4c4ccccc4)CC3)no2)CC1 [Example 240] | 50 to 100 nM | – | –
CS(=O)(=O)n1cc2c(n1)CN(CC1(CN[C@H]3CC3c3ccccc3)CC1)C2 (some centres unmarked) [Example 106] | – | 500 to 1000 nM | 50 to 70%
Cc1sc(C2(CN[C@H]3CC3c3ccccc3)CCC2)nc1C(=O)O (some centres unmarked) [Example 194] | 100 to 500 nM | – | –
O=C(O)[C@H]1CC[C@@H](c2nc(C3(CN[C@H]4C[C@@H]4c4ccccc4)CC3)no2)CC1 [Example 175] | 100 to 500 nM | – | –
O=C(O)C12CCC(c3nc(C4(CN[C@H]5C[C@@H]5c5ccccc5)CC4)no3)(CC1)CC2 [Example 177] | 100 to 500 nM | – | –
N[C@H]1CC[C@H](c2nnc(C3(CN[C@@H]4C[C@H]4c4ccccc4)CC3)o2)CC1 [Example 243] | 100 to 500 nM | – | –
Clc1ccc2oc(C3(CN[C@H]4CC4c4ccccc4)CC3)nc2c1 (some centres unmarked) [Example 47] | – | 100 to 500 nM | 50 to 70%
O=C(O)c1ccc2c(c1)CCN(CC1(CN[C@H]3CC3c3ccccc3)CC1)C2 (some centres unmarked) [Example 101] | – | 500 to 1000 nM | 50 to 70%
Clc1ccc(-n2cc(C3(CN[C@H]4CC4c4ccccc4)CC3)nn2)cc1 (some centres unmarked) [Example 96] | – | 500 to 1000 nM | 50 to 70%
c1ccc(C2C[C@@H]2NCC2(CN3CCc4ccncc4C3)CC2)cc1 (some centres unmarked) [Example 49] | – | 500 to 1000 nM | 90 to 100%
O=C(O)c1ccc(CN2CCC(c3nc(C4(CN[C@H]5CC5c5ccccc5)CC4)no3)CC2)cc1 (some centres unmarked) [Example 82] | – | 100 to 500 nM | 50 to 70%
c1ccc(C2C[C@@H]2NCC2(CN3CCc4ccccc4CC3)CC2)cc1 (some centres unmarked) [Example 58] | – | 100 to 500 nM | 70 to 90%
c1ccc(C2C[C@@H]2NCC2(CN3CCCC3)CC2)cc1 (some centres unmarked) [Example 77] | – | ≤ 100 nM | 70 to 90%
CN1CCC(c2nc(C3(CN[C@H]4CC4c4ccccc4)CC3)no2)CC1=O (some centres unmarked) [Example 218] | – | 100 to 500 nM | 70 to 90%
CC1CCN(CC2(CN[C@H]3CC3c3ccccc3)CC2)C1 (some centres unmarked) [Example 98] | – | 100 to 500 nM | 50 to 70%
O=C(O)c1ccc(N2CCC(c3nc(C4(CN[C@H]5CC5c5ccccc5)CC4)no3)CC2)cc1 (some centres unmarked) [Example 103] | – | 500 to 1000 nM | 50 to 70%
FC(F)(F)c1ccc2c(c1)CN(CC1(CN[C@H]3CC3c3ccccc3)CC1)C2 (some centres unmarked) [Example 55] | – | 100 to 500 nM | 70 to 90%
CC(=O)N1CCC(c2nc(C3(CN[C@H]4CC4c4ccccc4)CC3)no2)CC1 (some centres unmarked) [Example 105] | – | 100 to 500 nM | 70 to 90%
CN(C)[C@H]1CC[C@H](c2nc(C3(CN[C@H]4CC4c4ccccc4)CC3)no2)CC1 (some centres unmarked) [Example 108] | – | 500 to 1000 nM | 70 to 90%
N#CC1CCN(CC2(CN[C@H]3CC3c3ccccc3)CC2)CC1 (some centres unmarked) [Example 81] | – | ≤ 100 nM | 50 to 70%
c1ccc(C2C[C@@H]2NCC2(c3nc4ccccc4o3)CC2)cc1 (some centres unmarked) [Example 76] | – | 100 to 500 nM | 50 to 70%
c1ccc(C2C[C@@H]2NCC2(CN3CCCCc4ccccc43)CC2)cc1 (some centres unmarked) [Example 60] | – | 500 to 1000 nM | 50 to 70%
C[C@H]1CCCN1CC1(CN[C@H]2CC2c2ccccc2)CC1 (some centres unmarked) [Example 212] | – | 100 to 500 nM | 50 to 70%
FC(F)(F)C1CCN(CC2(CN[C@H]3CC3c3ccccc3)CC2)CC1 (some centres unmarked) [Example 80] | – | 100 to 500 nM | 50 to 70%
c1ccc(C2C[C@@H]2NCC2(CN3CCC3)CC2)cc1 (some centres unmarked) [Example 211] | – | 100 to 500 nM | 50 to 70%
